From patent US9951110B2, “Neuropeptides useful as insecticides” (THE STATE OF ISRAEL, MINISTRY OF AGRICULTURE & RURAL …, priority 2013, dated 2018)
Square brackets hold non-standard residues; d marks the D form. Ends that are not written are not given here. * marks the point of attachment. Cyclohexyl = cyclohexyl group capping the N-terminus, C1CCC(*)CC1; Fmoc = O=C(OCC1c2ccccc2-c2ccccc21)*

What was measured:
[1] = test system: Spodoptera littoralis larvae; assay: Melanotropic inhibitory activity: injection with a stimulator (PBAN, PT, LPK, DH); type: in vivo; conditions: for Melanotropic inhibitory activity, stimulator DH: injected with DH (diapause hormone); for Melanotropic inhibitory activity, stimulator DH / Melanotropic inhibitory activity, stimulator LPK / Melanotropic inhibitory activity, stimulator PBAN / Melanotropic inhibitory activity, stimulator PT: 100 pm; for Melanotropic inhibitory activity, stimulator LPK: injected with LPK (leucopyrokinin); for Melanotropic inhibitory activity, stimulator PBAN: injected with PBAN, inhibition = 100 minus % melanization with vs without peptide; for Melanotropic inhibitory activity, stimulator PT: injected with PT (pheromonotropin); for inhibition of melanin synthesis stimulated by LPK: stimulator LPK; for inhibition of melanin synthesis stimulated by PBAN: stimulator PBAN; for inhibition of melanin synthesis stimulated by PT: stimulator PT
Excerpt: FIG. 12. is a graph showing the melanotropic inhibitory activity of the peptides of the invention against different stimulators of the PK/PBAN family: PBAN, PT (pheromonotropin), LPK (leucopyrokinin), DH (diapause hormone). • Degree of cuticular melanization is expressed as a percentage of the melanization obtained by injection the elicitor itself (PBAN, PT, LPK or DH) in the absence of the tested peptide (not shown). Statistical analysis compared the degree of melanization in the presence and absence of the tested peptide with any given elicitor. An asterisk indicates a significant difference between the degree of melanization obtained in the presence of the peptide. This assay is used to test the agonistic properties of the tested peptides (in adult females), and to determine the peptides melanotropic agonistic or antagonistic properties (in larvae). It was also used to determine the activity of peptides that were stored outdoors for different amounts of time. The peptides are injected into either adult female insects (e.g. moths) at photophase (when pheromone is not synthesized naturally, but the insect has the ability to produce pheromone upon stimulation with a agonist) or into 5th instar larvae. Agonistic properties were tested by injection of the peptides alone; antagonistic properties were determined by injection of the peptide together with a stimulator. The ability of the peptides to inhibit cuticular melanin synthesis was tested in Spodoptera littoralis larvae. Inhibitory activity was tested by injecting the peptides to Spodoptera littoralis larvae together with a given stimulator: PBAN, PT, LPK and DH. Inhibition is expressed as 100 minus the ratio in percentage (%) between the extents of cuticular melanization obtain in the presence and absence of the tested peptide (Table 2).

[2] = test system: Heliothis peltigera female moths; assay: Topical application: inhibition of sex pheromone biosynthesis (cuticular bioavailability); type: in vivo; conditions: for comparison of activity in IIS vs. tap water: topical application; for inhibition of pheromone biosynthesis / lowering of pheromone content compared to the solvent: 10 pmol
Description: FIG. 2. is a graph showing the effect of topically applied peptides on the inhibition of sex pheromone biosynthesis in Heliothis peltigera female moths. • The tested peptides are those listed in Table 1 (1-10, respectively). • Peptides were tested at a concentration of 10 pmol and were applied in IIS (0.5% ethanol, 0.05% Tween-80 in DDW), and DDW for 1 h. • Sex pheromone content is expressed as a percentage of the endogenous pheromone content obtained using control untreated moths (defined as 100%). Statistical analysis compared pheromone content in the presence of each peptide with that obtained with the corresponding solvents themselves (indicated by an asterisk).
FIG. 3A and FIG. 3B are graphs showing the dose response of Ac-A-dPhe-4 (3A) or Ac-A-dPhe-6 (3B) on inhibition of sex pheromone biosynthesis in Heliothis peltigera female moths. Peptides were applied in DDW for 1 h. • Sex pheromone content is expressed as a percentage of the endogenous pheromone content obtained using control untreated moths (defined as 100%). Statistical analysis compared pheromone content in the presence of each peptide at the indicated concentrations with that obtained with the solvent itself (indicated by an asterisk). A similar statistical analysis was also made against the pheromone content of untreated moths (indicated by #). […] Differences in the potency of the peptides at the indicated concentrations are depicted by letters.
FIG. 4. is a graph showing the time response of 1 nmol Ac-A-dPhe-4 and Ac-A-dPhe-6 (applied in DDW) on inhibition of sex pheromone biosynthesis in Heliothis peltigera female moths. • Sex pheromone content is expressed as a percentage of the endogenous pheromone content obtained using control untreated moths (defined as 100%). Statistical analysis compared pheromone content in the presence of each peptide at the indicated times with that obtained with the solvent itself at the same time point (indicated by an asterisk). […] Differences in the potency of the peptides at the indicated time points are depicted by letters. (Ac-A-dPhe-4: small letters; Ac-A-dPhe-6: capital letters).
FIG. 5A to FIG. 5C are graphs showing the effect of topically applied peptides on inhibition of sex pheromone biosynthesis in Heliothis peltigera female moths. • The tested peptides are those listed in Table 1 (1-6, respectively). Peptides were tested at a concentration of 1000 pmol (5A), 300 pmol (5B) or 100 pmol (5C) and were applied in DDW, DMSO and IIS for 7h. • Sex pheromone content is expressed as a percentage of the endogenous pheromone content obtained using control untreated moths (defined as 100%). Statistical analysis compared pheromone content in the presence of each peptide in a given solvent (DDW, DMSO or ITS) with that obtained with the solvents themselves (indicated by an asterisk).
a) Topical Application (TA)
This assay is used to determine cuticular penetrability.
The tested peptides are applied onto the insect (e.g. moths) at scotophase (when pheromone is naturally synthesized) in a given solvent for the indicated times.
Antagonistic activity was tested at a concentration of 10 pmol and the peptides were topically applied in two solvents: DDW and IIS (FIG. 2). […] Ac-A-dPhe-6 was the second best in IIS inhibiting pheromone biosynthesis by 74%.
Only minor differences in activity is observed as a function of a dose (with the exception of Ac-A-dPhe-4 at 1000 pmol, which inhibited pheromone production to a lesser extent of about 50%).
All experiments were carried out at the scotophase and the peptides were applied one hour before pheromone glands were excised (+5) and tested for pheromone content (at the 6th hour of the scotophase when the pheromone content is at its highest level). The high inhibition obtained under the tested conditions, indicates the extremely fast and high penetrability and bioactivity of the peptides of the invention. […]

| Substance | Melanotropic inhibitory activity, stimulator DH [1] | Melanotropic inhibitory activity, stimulator LPK [1] | Melanotropic inhibitory activity, stimulator PBAN [1] | Melanotropic inhibitory activity, stimulator PT [1] | inhibition of melanin synthesis stimulated by LPK [1] | inhibition of melanin synthesis stimulated by PBAN [1] | comparison of activity in IIS vs. tap water [2] | inhibition of pheromone production ([2]; topical in DDW, 1 h, 1000 pmol) | inhibition of pheromone biosynthesis ([2]; topical, in DDW, 1 h) | activity as a function of the dose ([2]; topical, 7 h, in IIS and DMSO, 100, 300, 1000 pmol) | inhibition of melanin synthesis stimulated by PT [1] | lowering of pheromone content compared to the solvent ([2]; topical, in IIS, 1 h) | activity as a function of carrier ([2]; topical, 300 pmol, 7 h, DDW, IIS, DMSO) | lowering of pheromone content compared to the solvent ([2]; topical, in DDW, 1 h) | inhibition of pheromone biosynthesis ([2]; topical, in IIS, 1 h) | potency as a function of application time ([2]; topical, 1 nmol in DDW, 1, 3 and 7 h) |
| --- | --- | --- | --- | --- | --- | --- | --- | --- | --- | --- | --- | --- | --- | --- | --- | --- |
| Fmoc-Ala-Ser-Pro-[dPhe]-Leu-amide (Fmoc-ASP[dF]L-NH2; SMILES CC(C)C[C@H](NC(=O)[C@@H](Cc1ccccc1)NC(=O)[C@@H]1CCCN1C(=O)[C@H](CO)NC(=O)[C@H](C)NC(=O)OCC1c2ccccc2-c2ccccc21)C(N)=O) [Fmoc-A-dPhe-6] | 35% | 100% | 67% | 100% |  |  |  |  |  |  |  |  |  |  |  |  |
| Cyclohexyl-Ala-Ser-Pro-[dPhe]-Leu-amide (Cyclohexyl-ASP[dF]L-NH2; SMILES CC(C)C[C@H](NC(=O)[C@@H](Cc1ccccc1)NC(=O)[C@@H]1CCCN1C(=O)[C@H](CO)NC(=O)[C@H](C)NC1CCCCC1)C(N)=O) [Cyc-A-dPhe-6] | 15% | 100% | 67% | 26% | inhibited LPK | inhibited PBAN |  |  |  |  |  |  |  |  |  |  |
| Acetyl-Ala-[dPhe]-Pro-Arg-Leu-amide (Ac-A[dF]PRL-NH2; SMILES CC(=O)N[C@@H](C)C(=O)N[C@H](Cc1ccccc1)C(=O)N1CCC[C@H]1C(=O)N[C@@H](CCCNC(=N)N)C(=O)N[C@@H](CC(C)C)C(N)=O) [Ac-A-dPhe-4] | 6% | 31% | 54% | 100% | inhibited LPK | inhibited PBAN | No differences | about 50% | 83% | less active at 100 pmol compared to 300 and 1000 pmol | inhibited PT |  |  |  |  |  |
| Arg-Tyr-Phe-[dPhe]-Pro-Arg-Leu-amide (RYF[dF]PRL-NH2; N-terminus assumed; SMILES CC(C)C[C@H](NC(=O)[C@H](CCCNC(=N)N)NC(=O)[C@@H]1CCCN1C(=O)[C@@H](Cc1ccccc1)NC(=O)[C@H](Cc1ccccc1)NC(=O)[C@H](Cc1ccc(O)cc1)NC(=O)[C@@H](N)CCCNC(=N)N)C(N)=O) [dPhe-4] | 33% | 10% | 18% | 59% |  |  |  |  |  |  |  | failed to lower pheromone content | lower activity in DDW and IIS compared to DMSO |  |  |  |
| Cyclohexyl-Ala-[dPhe]-Pro-Arg-Leu-amide (Cyclohexyl-A[dF]PRL-NH2; SMILES CC(C)C[C@H](NC(=O)[C@H](CCCNC(=N)N)NC(=O)[C@@H]1CCCN1C(=O)[C@@H](Cc1ccccc1)NC(=O)[C@H](C)NC1CCCCC1)C(N)=O) [Cyc-A-dPhe-4] | 15% | 100% | 7% | 6% | inhibited LPK |  | No differences |  |  |  |  | failed to lower pheromone content |  |  |  |  |
| Fmoc-Ala-[dPhe]-Pro-Arg-Leu-amide (Fmoc-A[dF]PRL-NH2; SMILES CC(C)C[C@H](NC(=O)[C@H](CCCNC(=N)N)NC(=O)[C@@H]1CCCN1C(=O)[C@@H](Cc1ccccc1)NC(=O)[C@H](C)NC(=O)OCC1c2ccccc2-c2ccccc21)C(N)=O) [Fmoc-A-dPhe-4] | 28% | 100% | 68% | 100% |  |  | No differences |  |  |  |  |  |  |  |  |  |
| Arg-Tyr-Phe-Ser-Pro-[dPhe]-Leu-amide (RYFSP[dF]L-NH2; N-terminus assumed; SMILES CC(C)C[C@H](NC(=O)[C@@H](Cc1ccccc1)NC(=O)[C@@H]1CCCN1C(=O)[C@H](CO)NC(=O)[C@H](Cc1ccccc1)NC(=O)[C@H](Cc1ccc(O)cc1)NC(=O)[C@@H](N)CCCNC(=N)N)C(N)=O) [dPhe-6] | 15% | 78% | 49% | 74% |  |  |  |  |  |  |  |  |  | failed to lower pheromone content |  |  |
| Acetyl-Ala-Ser-Pro-[dPhe]-Leu-amide (Ac-ASP[dF]L-NH2; SMILES CC(=O)N[C@@H](C)C(=O)N[C@@H](CO)C(=O)N1CCC[C@H]1C(=O)N[C@H](Cc1ccccc1)C(=O)N[C@@H](CC(C)C)C(N)=O) [Ac-A-dPhe-6] | 29% | 0% | 63% | 100% | inhibited LPK | inhibited PBAN | No differences |  |  |  | inhibited PT |  |  |  | 74% | did not differ |
| Acetyl-Arg-Tyr-Phe-Ser-Pro-[dPhe]-Leu-amide (Ac-RYFSP[dF]L-NH2; SMILES CC(=O)N[C@@H](CCCNC(=N)N)C(=O)N[C@@H](Cc1ccc(O)cc1)C(=O)N[C@@H](Cc1ccccc1)C(=O)N[C@@H](CO)C(=O)N1CCC[C@H]1C(=O)N[C@H](Cc1ccccc1)C(=O)N[C@@H](CC(C)C)C(N)=O) [Ac-dPhe-6] | 35% | 8% | 59% | 100% |  |  |  |  |  |  |  |  |  |  |  |  |
| Acetyl-Arg-Tyr-Phe-[dPhe]-Pro-Arg-Leu-amide (Ac-RYF[dF]PRL-NH2; SMILES CC(=O)N[C@@H](CCCNC(=N)N)C(=O)N[C@@H](Cc1ccc(O)cc1)C(=O)N[C@@H](Cc1ccccc1)C(=O)N[C@H](Cc1ccccc1)C(=O)N1CCC[C@H]1C(=O)N[C@@H](CCCNC(=N)N)C(=O)N[C@@H](CC(C)C)C(N)=O) [Ac-dPhe-4] | 22% | 51% | 70% | 100% |  | inhibited PBAN |  |  |  |  | inhibited PT |  |  |  |  |  |
